From US8829035B2, “Agent for treatment or prevention of diseases associated with activity of neurotrophic factors” (Sumitomo Chemical Company, Limited, priority 2009, dated 2014)

System: activity of 200 ng/mL of NGF (NXF promoter-driven luciferase in PC12 cells)
Assay: Luciferase reporter assay (NXF promoter) in PC12 cells: potentiation of NGF activity
Assay type: cell-based, rat
Set-up: key: +: Showed relatively weak potentiation (potentiation only exhibited at 10 μM); ++: Showed potentiation; +++: Showed particularly strong potentiation (2-fold or greater potentiation of the activity of 200 ng/mL of NGF at 1 μM)
Details: Test Example 1, relative luciferase activity vs 200 ng/mL NGF alone, overnight (approx. 16 hours)
Experimental: The forward primer 5′-[…]-3′ and the reverse primer 5′-[…]-3′ were prepared as the PCR primers according to the sequence information for the NXF gene genome sequence (Accession Nos. AB054577 and NC—000085), and the PCR method was used to isolate from approximately 5 kbp upstream from the translated region of the NXF gene promoter portion to the vicinity of the transcription start site. For this, 1 μg of mouse genomic DNA (Takara) was used as the template, and the 2-step PCR reaction was carried out for 35 cycles, the conditions for which were 95° C./1 m in the denaturing step, and 68° C./8 m in the annealing and extension steps, to obtain the PCR product. The NXF promoter fragment was inserted into the SmaI site of the pGL3 Basic vector (Promega) in the upstream of luciferase gene to prepare a reporter plasmid that would express the luciferase enzyme driven by the NXF promoter.
PC12 cells (available from the ATCC) were cultured using RPMI medium (GIBCO-BRL) with 5% FCS (GIBCO-BR) and 15% horse serum (GIBCO-BRL) added, and 1 mM in sodium pyruvate (GIBCO-BRL), at 37° C. in the presence of 5% CO2. After transfection in 10^6 of these PC12 cells for 2 days with 12 μg of the above-described reporter plasmid and 1 μg of pRC/RSV vector (Invitrogen) using the Lipofectamine 2000 reagent (Invitrogen), the medium was exchanged for fresh medium containing 40 mg/L of geneticin sulfate (GIBCO), and this was cultured continuously. Culturing was continued for approximately 1 month with medium exchange of the cultured medium containing 40 mg/L of geneticin sulfate (GIBCO) every several days, with the result that multiple colonies of the obtained cells were picked up. Among these, one of the colonies that induced luciferase activity in the presence of 40 ng/mL of NGF (Wako Pure Chemicals) was selected and used for the cells to evaluate the activity of the compounds below.
These cells were set up in 96-well plates with 80% confluence, and the luciferase reporter assay was conducted using the Promega Steady Glo luciferase assay kit. The procedure was carried out overnight (approx. 16 hours) using culture medium containing the compound, and the Steady Glo substrate solution was added to the cells in half-diluted in PBS after removal of all remaining medium containing the compound. After this was allowed to stand for 30 minutes, the respective quantity of light produced was measured with a luminometer (Envision Perkin Elmer).
The activity of the compounds for evaluation was measured as the potentiation of the activity of 200 ng/mL of NGF. For the experiment control wells, the negative control well had medium containing only a final concentration of 0.1% DMSO, the positive control well had medium containing a saturation concentration of NGF. In addition, a test well was set up containing 0.1% DMSO with 200 ng/mL of NGF added corresponding to a 0 compound concentration. When its luciferase activity was taken as a standard, the relative luciferase activity could be calculated for the test wells to which the compound solution (dissolved in DMSO and prepared to have a final DMSO concentration of 0.1%) had been added in addition to the 200 ng/mL of NGF, to find the potentiation of the activity of 200 ng/mL of NGF due to that compound.

SMILES | Activity (potentiation of NGF activity)
COc1ccc(-n2c(C)nc3cc(-c4nc5ccccc5o4)ccc32)cc1 [Ex. 15, 5-(benzoxazol-2-yl)-1-(4-methoxyphenyl)-2-methylbenzimidazole] | +
Cc1nc2cc(-c3cc4ccccc4[nH]3)ccc2n1C1CCOCC1 [Ex. 38, 5-(indol-2-yl)-1-(tetrahydropyran-4-yl)-2-methylbenzimidazole] | ++
COCc1nc2cc(-c3nc4ccccc4s3)ccc2n1C1CCOCC1 [Ex. 6, 5-(benzothiazol-2-yl)-2-methoxymethyl-1-(tetrahydropyran-4-yl)benzimidazole] | ++
c1ccc2oc(-c3ccc4c(c3)nc(C3CCCCC3)n4C3CCOCC3)nc2c1 [Ex. 23, 5-(benzoxazol-2-yl)-2-cyclohexyl-1-(tetrahydropyran-4-yl)benzimidazole] | ++
Cc1nc2cc(-c3nc4ccccc4o3)ccc2n1C(C)(C)C [Ex. 29, 5-(benzoxazol-2-yl)-2-methyl-1-tert-butylbenzimidazole] | ++
c1ccc2oc(-c3ccc4c(c3)nc(-c3ccncc3)n4C3CCOCC3)nc2c1 [Ex. 26, 5-(benzoxazol-2-yl)-2-(4-pyridyl)-1-(tetrahydropyran-4-yl)benzimidazole] | ++
c1ccc(-c2nc3cc(-c4nc5ccccc5o4)ccc3n2C2CCOCC2)nc1 [Ex. 21, 5-(benzoxazol-2-yl)-2-(2-pyridyl)-1-(tetrahydropyran-4-yl)benzimidazole] | ++
CCOC(=O)N1CCC(n2c(C)nc3cc(-c4nc5ccccc5o4)ccc32)CC1 [Ex. 33, 5-(benzoxazol-2-yl)-1-((1-ethoxycarbonyl)piperidine-4-yl)-2-methylbenzimidazole] | ++
CN(C)Cc1nc2cc(-c3nc4ccccc4o3)ccc2n1C1CCOCC1 [Ex. 14, 5-(benzoxazol-2-yl)-2-(N,N-dimethylaminomethyl)-1-(tetrahydropyran-4-yl)benzimidazole] | +
Cc1nc2cc(-c3nc4ccccc4o3)ccc2n1C1CCOCC1 [Ex. 11, 5-(benzoxazol-2-yl)-2-methyl-1-(tetrahydropyran-4-yl)benzimidazole] | ++
Cc1nc2cc(-c3cc4ccccc4n3C(=O)OC(C)(C)C)ccc2n1C1CCOCC1 [Ex. 37, 5-(N-t-butoxycarbonylindol-2-yl)-2-methyl-1-(tetrahydropyran-4-yl)benzimidazole] | ++
Cc1nc2cc(-c3nc4ccccc4o3)ccc2n1-c1ccccc1 [Syn. Ex. 3, 5-(benzoxazol-2-yl)-2-methyl-1-phenylbenzimidazole] | ++

Same assay, conditions: Test Example 4, same manner as Test Example 1, relative luciferase activity vs 200 ng/mL NGF alone

SMILES | Activity (potentiation of NGF activity)
Cc1nc2cc(-c3nc4ccccc4o3)ccc2n1CC(=O)N1CCOCC1 [Ex. 107] | +
Cc1nc2cc(-c3nc4ccccc4o3)c(Cl)cc2n1C1CCOCC1 [Ex. 112, 5-(benzoxazol-2-yl)-2-methyl-1-(tetrahydropyran-4-yl)-6-chlorobenzimidazole] | ++
Cc1nc2cc(-c3nc4ccccc4o3)ccc2n1CCS(C)(=O)=O [Ex. 132, 5-(benzoxazol-2-yl)-1-(2-(methylsulfonyl)ethyl)-2-methylbenzimidazole] | ++
Cc1nc2cc(-c3nc4ccccc4o3)ccc2n1C(CO)c1ccccc1 (stereo not shown) [Ex. 120, 5-(1-benzoxazol-2-yl)-1-(2-phenylethanol-2-yl)-2-methylbenzimidazole] | ++
Cc1nc2cc(-c3nc4ccccc4o3)ccc2n1CCCN1CCOCC1 [Ex. 96, 5-(benzoxazol-2-yl)-2-methyl-1-(3-(morpholine-4-yl)propyl)benzimidazole] | ++
c1ccc2oc(-c3ccc4c(c3)nc(C3CCCO3)n4C3CCOCC3)nc2c1 (stereo not shown) [Ex. 90, 5-(benzoxazol-2-yl)-2-(tetrahydrofuran-2-yl)-1-(tetrahydropyran-4-yl)benzimidazole] | ++
Cc1nc2cc(-c3nc4ccccc4o3)ccc2n1CCc1ccccc1 [Ex. 52, 5-(benzoxazol-2-yl)-2-methyl-1-(2-phenylethyl)benzimidazole] | ++
Cc1nc2cc(-c3nc4ccccc4o3)ccc2n1Cc1ccc(C(=O)O)cc1 [Ex. 114, 5-(benzoxazol-2-yl)-1-(4-carboxyphenylmethyl)-2-methylbenzimidazole] | ++
c1ccc(Cc2nc3cc(-c4nc5ccccc5o4)ccc3n2C2CCOCC2)cc1 [Ex. 61, 5-(benzoxazol-2-yl)-2-benzyl-1-(tetrahydropyran-4-yl)benzimidazole] | ++
Cc1nc2cc(-c3nc4ccccc4o3)ccc2n1CCNC(=O)C(F)(F)F [Ex. 109, 5-(benzoxazol-2-yl)-2-methyl-1-(2-trifluoroacetylaminoethyl)benzimidazole] | ++
Cc1nc2cc(-c3nc4ccccc4o3)ccc2n1CCC1CCOCC1 [Ex. 83, 5-(benzoxazol-2-yl)-2-methyl-1-(2-(tetrahydropyran-4-yl)ethyl)benzimidazole] | ++
CCCNC(=O)c1ccc2oc(-c3ccc4c(c3)nc(C)n4C3CCOCC3)nc2c1 [Ex. 99, 2-methyl-5-(5-n-propylaminocarbonylbenzoxazol-2-yl)-1-(tetrahydropyran-4-yl)benzimidazole] | ++
Cc1nc2cc(-c3nc4ccccc4o3)ccc2n1CCNC(=O)CCC(=O)O [Ex. 108, 4-oxo-4-(2-(5-(benzoxazol-2-yl)-2-methylbenzimidazol-1-yl)ethyl)aminobutyric acid] | ++
C(=C\c1nc2cc(-c3nc4ccccc4o3)ccc2n1C1CCOCC1)/c1ccccc1 [Ex. 62, 5-(benzoxazol-2-yl)-2-trans-cinnam-1-(tetrahydropyran-4-yl)benzimidazole] | ++
Cc1nc2cc(-c3nc4ccccc4o3)ccc2n1CC1CCOCC1 [Ex. 84, 5-(benzoxazol-2-yl)-2-methyl-1-((tetrahydropyran-4-yl)methyl)benzimidazole] | ++
COc1ccc2oc(-c3ccc4c(c3)nc(C)n4C3CCOCC3)nc2c1 [Ex. 66, 5-(5-methoxybenzoxazol-2-yl)-2-methyl-1-(tetrahydropyran-4-yl)benzimidazole] | ++
Cc1nc2cc(-c3nc4ccccc4o3)ccc2n1C(c1ccccc1)c1ccccc1 [Ex. 89, 5-(benzoxazol-2-yl)-2-diphenylmethyl-2-methylbenzimidazole] | ++
c1ccc2oc(-c3ccc4c(c3)nc(CC3CCOCC3)n4C3CCOCC3)nc2c1 [Ex. 111, 5-(benzoxazol-2-yl)-1-(tetrahydropyran-4-yl)-2-(tetrahydropyran-4-yl)methylbenzimidazole] | ++
Cc1nc2cc(-c3nc4ccccc4o3)ccc2n1C1CCC(=O)CC1 [Ex. 78, 5-(benzoxazol-2-yl)-1-(cyclohexanon-4-yl)-2-methylbenzimidazole] | ++
C(#Cc1nc2cc(-c3nc4ccccc4o3)ccc2n1C1CCOCC1)c1ccccc1 [Ex. 69, 5-(benzoxazol-2-yl)-2-(2-phenylethynyl)-1-(tetrahydropyran-4-yl)benzimidazole] | ++
Cc1nc2cc(-c3nc4ccccc4o3)ccc2n1C1CC1 [Ex. 53, 5-(benzoxazol-2-yl)-2-methyl-1-cyclopropylbenzimidazole] | ++
COC(=O)c1cccc(Cn2c(C)nc3cc(-c4nc5ccccc5o4)ccc32)c1 [Ex. 117, 5-(benzoxazol-2-yl)-1-(3-methoxycarbonylphenylmethyl)-2-methylbenzimidazole] | ++
